Structures are written as SMILES. Counter-ions that a name gives are not always drawn.

The text below walks through data of patent US10040802B2, “Thienopyrazine inhibitors of IRAK4 activity” (MERCK SHARP & DOHME CORP., priority 2015, dated 2018).

GST tagged IRAK4, sequence (Q9NWZ3 whole entry): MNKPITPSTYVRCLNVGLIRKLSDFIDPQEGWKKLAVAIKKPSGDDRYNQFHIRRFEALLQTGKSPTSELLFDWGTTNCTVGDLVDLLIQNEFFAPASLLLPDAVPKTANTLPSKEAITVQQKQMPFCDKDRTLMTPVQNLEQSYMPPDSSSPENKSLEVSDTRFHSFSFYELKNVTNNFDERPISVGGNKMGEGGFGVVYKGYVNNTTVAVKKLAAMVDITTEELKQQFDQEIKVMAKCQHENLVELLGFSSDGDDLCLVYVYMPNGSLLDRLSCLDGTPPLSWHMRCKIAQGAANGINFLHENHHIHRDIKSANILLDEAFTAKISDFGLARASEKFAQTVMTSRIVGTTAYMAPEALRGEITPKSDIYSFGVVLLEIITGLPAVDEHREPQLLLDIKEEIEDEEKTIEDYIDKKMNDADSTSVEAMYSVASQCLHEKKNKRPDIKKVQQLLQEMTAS

This assay has as its target GST tagged IRAK4 (Homo sapiens (Human), UniProt Q9NWZ3). The assay is described as follows: IRAK4 Kinase Assay (IMAP fluorescence polarization). The following applies: 0.5 nM GST tagged IRAK4, 100 μM ATP, 30 minutes at 25° C. The format is biochemical. In a few lines: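 GST-tagged IRAK4 (0.5 nM) phosphorylates 100 nM fluorescent peptide with 100 μM ATP in 10 mM Tris pH 7.2, 1 mM MgCl2, 1 mM DTT, 0.01% Tween 20 for 30 min at 25 °C. Phosphorylation read as IMAP nanoparticle-binding fluorescence polarization after stop reagent.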
(In general: Fluorescence polarisation rises when a labelled molecule tumbles more slowly, as on binding a larger partner.)
In turn, `O=C(Nc1cscc1C(F)F)c1csc2ncc(N3CCCNCC3)nc12` [Example 47, 2-(1,4-diazepan-1-yl)-N-[4-(difluoromethyl)thiophen-3-yl] thieno[2,3-b] pyrazine-7-carboxamide trifluoroacetate] registered an IC50 of 0.038 µM. Next, `O=C(Nc1cscc1Br)c1csc2ncc(N3CCCNCC3)nc12` [Example 48, N-(4-bromothiophen-3-yl)-2-(1,4-diazepan-1-yl)thieno[2,3-b] pyrazine-7-carboxamide trifluoroacetate]: 0.346 µM; `N[C@H]1CCCC[C@H]1Nc1cnc2scc(C(=O)Nc3cscc3C(F)F)c2n1` [Example 50, 2-{[(1R,2S)-2-aminocyclohexyl]amino}-N-(4-(difluoromethyl)thiophen-3-yl] thieno[2,3-b] pyrazine-7-carboxamide trifluoroacetate]: 0.0007 µM. For `O=C(Nc1ccsc1Br)c1csc2ncc(N3CCCNCC3)nc12` [Example 51, N-(2-bromothiophen-3-yl)-2-(1,4-diazepan-1-yl)thieno[2,3-b] pyrazine-7-carboxamide trifluoroacetate] the value was 1.16 µM; for `O=C(Nc1ccsc1Cl)c1csc2ncc(N3CCCNCC3)nc12` [Example 52, N-(2-chlorothiophen-3-yl)-2-(1,4-diazepan-1-yl)thieno[2,3-b] pyrazine-7-carboxamide trifluoroacetate], 0.585 µM; for `N[C@H]1CCCC[C@H]1Nc1cnc2scc(C(=O)Nc3cscc3Br)c2n1` [Example 53, 2-{[(1R,2S)-2-amino-cyclohexyl]amino}-N-(4-bromothiophen-3-yl)thieno[2,3-b] pyrazine-7-carboxamide trifluoroacetate], 0.0006 µM.

Take `N[C@H]1CCCC[C@H]1Nc1cnc2scc(C(=O)Nc3ccsc3Br)c2n1` [Example 54, 2-{[(1R,2S)-2-amino-cyclohexyl]amino}-N-(2-bromothiophen-3-yl)thieno[2,3-b] pyrazine-7-carboxamide trifluoroacetate]: the IC50 amounted to 0.001 µM. Against the preceding molecule, the IC50 is about 1.7-fold higher. Next, `N#Cc1cscc1NC(=O)c1csc2ncc(N3CCCNCC3)nc12` [Example 55, N-(4-cyanothiophen-3-yl)-2-(1,4-diazepan-1-yl)thieno[2,3-b] pyrazine-7-carboxamide trifluoroacetate]: 0.189 µM; `N[C@H]1CCCC[C@H]1Nc1cnc2scc(C(=O)Nc3ccsc3Cl)c2n1` [Example 56, 2-{[(1R,2S)-2-amino-cyclohexyl]amino}-N-(2-chlorothiophen-3-yl)thieno[2,3-b] pyrazine-7-carboxamide trifluoroacetate]: 0.0006 µM. `N#Cc1cscc1NC(=O)c1csc2ncc(N[C@@H]3CCCC[C@@H]3N)nc12` [Example 57, 2-{[(1R,2S)-2-amino-cyclohexyl]amino}-N-(4-cyanothiophen-3-yl)thieno[2,3-b] pyrazine-7-carboxamide trifluoroacetate] had an IC50 of 0.0005 µM. This IC50 and that of the molecule before are within 1.5-fold of each other. For `N[C@@H]1[C@H](Nc2cnc3scc(C(=O)Nc4ccsc4Cl)c3n2)CCCC1(F)F` [Example 60, 2-{[(1R,2R)-2-amino-3,3-difluorocyclohexyl]amino}-N-(2-chloro-thiophen-3-yl) thieno[2,3-b] pyrazine-7-carboxamide trifluoroacetate] the value was 1.41 µM.

Take `N[C@@H]1[C@H](Nc2cnc3scc(C(=O)Nc4cscc4C(F)F)c3n2)CCCC1(F)F` [Example 67, 2-{[(1R,2R)-2-amino-3,3-difluorocyclohexyl]amino}-N-[4-(difluoromethyl)thiophen-3-yl] thieno[2,3-b] pyrazine-7-carboxamide trifluoroacetate]: 0.33 µM corresponded to half-maximal inhibition (IC50). Next, `N[C@@H]1[C@H](Nc2cnc3scc(C(=O)Nc4cscc4Br)c3n2)CCCC1(F)F` [Example 68, 2-{[(1R,2R)-2-amino-3,3-difluorocyclohexyl]amino}-N-(4-bromothiophen-3-yl) thieno[2,3-b] pyrazine-7-carboxamide formate]: 2.1 µM; `N[C@@H]1[C@H](Nc2cnc3scc(C(=O)Nc4ccsc4Br)c3n2)CCCC1(F)F` [Example 71, 2-{[(1R,2R)-2-amino-3,3-difluorocyclohexyl]amino}-N-(2-bromothiophen-3-yl) thieno[2,3-b] pyrazine-7-carboxamide trifluoroacetate]: 2.07 µM. Next, `N#Cc1sccc1NC(=O)c1csc2ncc(N3CCCNCC3)nc12` [Example 72, N-(2-cyanothiophen-3-yl)-2-(1,4-diazepan-1-yl)thieno[2,3-b] pyrazine-7-carboxamide trifluoroacetate]: 0.422 µM; `O=C(Nc1ccsc1C(F)(F)F)c1csc2ncc(N3CCCNCC3)nc12` [Example 73, 2-(1,4-diazepan-1-yl)-N-[2-(trifluoromethyl)thiophen-3-yl] thieno[2,3-b] pyrazine-7-carboxamide trifluoroacetate]: 1.59 µM; `N[C@H]1CCCC[C@H]1Nc1cnc2scc(C(=O)Nc3ccsc3C(F)(F)F)c2n1` [Example 76, 2-{[(1R,2S)-2-amino-cyclohexyl]amino}-N-(2-(trifluoromethyl)thiophen-3-yl] thieno[2,3-b] pyrazine-7-carboxamide trifluoroacetate]: 0.012 µM. In turn, `N#Cc1sccc1NC(=O)c1csc2ncc(N[C@@H]3CCCC[C@@H]3N)nc12` [Example 77, 2-{[(1R,2S)-2-amino-cyclohexyl]amino}-N-(2-(cyanothiophen-3-yl)thieno[2,3-b]pyrazine-7-carboxamide trifluoroacetate] showed an IC50 of 0.0005 µM. For `N#Cc1sccc1NC(=O)c1csc2ncc(N[C@@H]3CCCC(F)(F)[C@@H]3N)nc12` [Example 78, 2-{[(1R,2R)-2-amino-3,3-difluorocyclohexyl]amino}-N-(2-cyanothiophen-3-yl) thieno[2,3-b] pyrazine-7-carboxamide trifluoroacetate] the value was 3.66 µM; for `N#Cc1cscc1NC(=O)c1csc2ncc(N[C@@H]3CCCC(F)(F)[C@@H]3N)nc12` [Example 79, 2-{[(1R,2R)-2-amino-3,3-difluorocyclohexyl]amino}-N-(4-cyanothiophen-3-yl) thieno[2,3-b] pyrazine-7-carboxamide trifluoroacetate], 0.371 µM; for `N#Cc1ccccc1NC(=O)c1csc2ncc(N3CCCNCC3)nc12` [Example 80, N-(2-Cyanophenyl)-2-(1,4-diazepan-1-yl)thieno[2,3-b]pyrazine-7-carboxamide], 0.558 µM. Molecule `N[C@H]1CCCC[C@H]1Nc1cnc2scc(C(=O)Nc3ccccc3C(F)(F)F)c2n1` [Example 81, 2-{[(1R,2S)-2-aminocyclo-hexyl]amino}-N-[2-(trifluoromethyl)phenyl]thieno[2,3-b]pyrazine-7-carboxamide trifluoroacetate] yielded an IC50 of 0.086 µM. For `O=C(Nc1ccccc1Br)c1csc2ncc(N3CCCNCC3)nc12` [Example 82, N-(2-bromophenyl)-2-(1,4-diazepan-1-yl)thieno[2,3-b]pyrazine-7-carboxamide trifluoroacetate] the value was 2.34 µM; for `N#Cc1ccccc1NC(=O)c1csc2ncc(N3CCNCC4(CC4)C3)nc12` [Example 83, N-(2-cyanophenyl)-2-(5,8-diazaspiro-[2.6]non-5-yl)-thieno[2,3-b]-pyrazine-7-carboxamide trifluoroacetate], 0.899 µM. Next, `N#Cc1ccccc1NC(=O)c1csc2ncc(N3CCC[C@@H](N)C3)nc12` [Example 84, 2-[(3R)-3-aminopiperidin-1-yl]-N-(2-cyanophenyl)-thieno[2,3-b]-pyrazine-7-carboxamide trifluoroacetate]: 0.033 µM; `N#Cc1ccccc1NC(=O)c1csc2ncc(N[C@@H]3CCCNC3)nc12` [Example 85, N-(2-cyanophenyl)-2-[(3R)-piperidin-3-ylamino]-thieno[2,3-b]-pyrazine-7-carboxamide trifluoroacetate]: 0.002 µM; `N#Cc1ccccc1NC(=O)c1csc2ncc(N3CCNCC3)nc12` [Example 86, N-(2-cyanophenyl)-2-piperazin-1-yl-thieno[2,3-b]-pyrazine-7-carboxamide trifluoroacetate]: 0.292 µM. Next, `N[C@H]1CCCC[C@H]1Nc1cnc2scc(C(=O)Nc3ccccc3Br)c2n1` [Example 87, 2-{[(1R,2S)-2-aminocyclohexyl]-amino}-N-(2-bromophenyl)-thieno[2,3-b]-pyrazine-7-carboxamide trifluoroacetate]: 0.002 µM.

In turn, `O=C(Nc1ccccc1C(F)(F)F)c1csc2ncc(N3CCCNCC3)nc12` [Example 90, 2-(1,4-diazepan-1-yl)-N-[2-(trifluoromethyl)phenyl]thieno[2,3-b]pyrazine-7-carboxamide trifluoroacetate] registered an IC50 of 6.4 µM. `O=C(Nc1ccccc1Cl)c1csc2ncc(N3CCCNCC3)nc12` [Example 91, N-(2-chlorophenyl)-2-(1,4-diazepan-1-yl)thieno[2,3-b]-pyrazine-7-carboxamide trifluoroacetate] showed an IC50 of 0.595 µM. This IC50 lies about 11-fold lower than the previous one. The molecule `N[C@H]1CCCC[C@H]1Nc1cnc2scc(C(=O)Nc3ccccc3Cl)c2n1` [Example 92, 2-{(1R,2S)-2-aminocyclohexyl]-amino}-N-(2-chlorophenyl)-thieno[2,3-b]-pyrazine-7-carboxamide trifluoroacetate] showed an IC50 of 0.0008 µM. For `N#Cc1ccccc1NC(=O)c1csc2ncc(N[C@@H]3CCCC[C@@H]3N)nc12` [Example 95, 2-{[(1R,2S)-2-aminocyclohexyl]-amino}-N-(2-cyanophenyl)-thieno[2,3-b]-pyrazine-7-carboxamide trifluoroacetate] the value was 0.0005 µM; for `N[C@@H]1[C@H](Nc2cnc3scc(C(=O)Nc4ccccc4Br)c3n2)CCCC1(F)F` [Example 96, 2-{[(1R,2R)-2-amino-3,3-difluorocyclo-hexyl]amino}-N-(2-bromo-phenyl)thieno-[2,3-b]-pyrazine-7-carboxamide], 2.01 µM.

The term IC50 denotes the concentration that inhibits the measured activity by half. A high value points to weaker potency in that assay.
